Test results from patent publication US20050074451A1, “Methods and compositions for treating rheumatoid arthritis” (Elan Pharmaceuticals, Inc., priority 2003, published 2005).

Assays:
[1] = rat, in vivo, 3 mg/kg
rat ClA model = test: Rat ClA model, paw swelling and erythema, disease severity; format: in vivo; conditions: antibody 3 mg/kg i.v., compounds 30, 10, 3 mg/kg b.i.d.
Protocol: Anti alpha-4 antibodies, and the compounds of Formulae W and Y were tested in the rat ClA model according to the methods shown in Table 14 below.
(§1) The results in FIG. 6 show the results for compounds. There were 8 rats per group in the efficacy study. Paw swelling and erythema were measured daily and the tarsal paws collected for histological analysis at the end of the study. Plasma which was heparinized was collected at 12 hours (i.e., the trough level) and at 4 horus after the last dose for compound measurement (FIG. 6).

[2] = tested on: Lewis rats with adjuvant induced arthritis; test: Adjuvant-induced arthritis (AIA) in Lewis rats: paw swelling, erythema, clinical and histological scores; format: in vivo, rat
[3] = Blood levels of compound in murine ClA model; format: in vivo; conditions: male, DBA/1 LacJ, mouse, whole blood, 100 mg/kg b.i.d., 16 hours after dosing
Protocol: The effect of the compound of Formula P was evaluated in a therapeutica ClA model.
(§2) 100 DBA/1 LacJ male mice, ages 6-8 weeks were obtained from Jackson Laboratories. The mice were immunized at Day 0 as follows: 100 μg bovine type II collagen (Chondrex) in Complete Freund's adjuvant (CFA, Sigma) were injected into the mice. At Day 21, another 100 μg bovine type II collagen (Chondrex) in Incomplete Freund's Adjuvant (IFA, Sigma) was injected into the mice. Treatment with the compound began when the animals had the disease (i.e., 100% therapeutic).

[4] = Plasma/blood compound levels in AIA rats (PK, relative to receptor saturation); conditions: 12 hours after dosing, all concentrations tested
[5] = Blood/plasma levels of compound in rat ClA model (relative to receptor saturation); format: in vivo; conditions: at 12 hours, all concentrations tested
Protocol: as §1

[6] = tested on: DBA/1 LacJ mice with collagen-induced arthritis; test: Murine collagen-induced arthritis (ClA) model, clinical scores; format: in vivo, mouse; conditions: therapeutic ClA model, 100 mg/kg b.i.d. (Table 12)
Protocol: A murine collagen-induced arthritis (ClA) model was used to examine the pharmacological effect of anti-alpha4-integrin antibodies prophylactically, semi-therapeutically and therapeutically. Dosing of the antibody was begun on day 20 for the prophylactic animals. […] The results seen with the treatment of the ClA mice is seen in FIG. 1.
Peripheral blood leucocytes (PBLs) from mice treated with anti-alpha4, anti-α4β7 and anti-VCAM1 antibodies were collected at 4, 12 and 24 hours after antibody dosing. Cells were stained with goat anti-rat antibodies to confirm antibodies in circulation.
as §2
The mice are scored daily after the boost. […] Treatment continued for 3-weeks-of dosing. Dosing was every other day for the antibody group and control group.
DBA/1 LacJ mice, aged 8 weeks will be immunized with bovine collagen (100 μg/mice) in CFA and re-challenge on day 21 in IFA.

VLA-4 = VLA-4 (Homo sapiens, UniProt P13612); conditions: cited from earlier work
[7] = tested on: human lymphocyte binding to rat brain cells; conditions: rat brain cells stimulated with tumor necrosis factor; cited from earlier work

Cc1ccc(S(=O)(=O)N2CCC[C@H]2C(=O)N[C@@H](Cc2ccc(OC(=O)N3CCN(CCO)CC3)cc2)C(=O)OC(C)(C)C)cc1
melting point: 158 to 160 °C

CC(C)OC(=O)[C@H](Cc1ccc(OC(=O)N2CCN(C)CC2)cc1)NC(=O)[C@H]1N(S(=O)(=O)c2cccnc2)CSC1(C)C [Formula N, N-[N-(3-pyridinesulfonyl)-L-3,3-dimethyl-4-thiaprolyl]-O-[I-methylpiperazin-4-ylcarbonyl]-L-tyrosine isopropyl ester]
compound present in the blood relative to receptor saturation [1]: below receptor saturation
disease severity (rat ClA model): neither the compound of Formula N nor Y had any impact on disease severity
clinical and histological scores ([2]; AIA animal model, 30 mg/kg b.i.d.): ameliorate clinical and histological scores
disease severity ([2]; AIA rats, 3 mg/kg): no effect on disease severity

CCN(CC)c1ncc(N(CC)S(=O)(=O)c2ccc(Cl)cc2)c(NC(Cc2ccc(OC(=O)N3CCCC3)cc2)C(=O)O)n1 (stereo not drawn) [Formula P]
concentration at 16 h [3]: 1000 ng/mL
levels of the compound relative to receptor saturation [4]: above receptor saturation
disease ([2]; AIA rats, all concentrations tested (30, 10, 3 mg/kg b.i.d. p.o.)): ameliorate disease at all concentrations tested
blood levels of the compound relative to receptor saturation [5]: above receptor saturation
disease progression [6]: no effect on disease progression

B1: mu MAb 21.6: mouse monoclonal antibody specific for the α4 subunit of VLA-4; donor immunoglobulin of the humanized antibodies (antibody, V domains shown)
VH: EVQLQQSGAELVKPGASVKLSCTASGFNIKDTYIHCVKQRPEQGLEWIGRIDPANGYTKYDPKFQGKATITADTSSNTAYLQLSSLTSEDTAVYFCAREGYYGNYGVYAMDYWGQGTSVTVSSAK
VL: DIQMTQSPSSLSASLGGKVTITCKTSQDINKYMAWYQHKPGKRPRLLIHYTSALQPGIPSRFSGSGSGRDYSFNISNLEPEDIATYYCLQYDNLWTFGGGTKLEIK
binding affinity for VLA-4 (VLA-4): about 10^9 M^−1
human lymphocyte binding to tissue cultures of rat brain cells [7]: inhibit
